Source: ChEMBL document CHEMBL2424571, “Synthesis, molecular docking studies, and in vitro screening of barbiturates/thiobarbiturates as antibacterial and cholinesterase inhibitors” (Med Chem Res, 2013)
Values after ≈ are worked out from the molar mass of the structure shown. Active and inactive are the calls of the source. The calls are words filed in the database; no cut-off is given here.

How the values were obtained:
Cholinesterase [1] = molecular target: T1, Cholinesterase (Homo sapiens, UniProt P06276); test: Inhibition of BChE (unknown origin) using butyryl thiocholine iodide as substrate at 0.25 mM after 30 mins by Ellman's method
Acetylcholinesterase [2] = molecular target: T2, Acetylcholinesterase (Homo sapiens, UniProt P22303); test: Inhibition of AChE (unknown origin) using acetyl thiocholine iodide as substrate at 0.25 mM after 30 mins by Ellman's method
Acetylcholinesterase [3] = molecular target: T2, Acetylcholinesterase; test: Inhibition of AChE (unknown origin) using acetyl thiocholine iodide as substrate after 30 mins by Ellman's method
Cholinesterase [4] = molecular target: T1, Cholinesterase; test: Inhibition of BChE (unknown origin) using butyryl thiocholine iodide as substrate after 30 mins by Ellman's method
Cholinesterase [5] = molecular target: T1, Cholinesterase; test: Inhibition of BChE (unknown origin) using butyryl thiocholine iodide as substrate at 0.5 mM after 30 mins by Ellman's method
Acetylcholinesterase [6] = molecular target: T2, Acetylcholinesterase; test: Inhibition of AChE (unknown origin) using acetyl thiocholine iodide as substrate at 0.5 mM after 30 mins by Ellman's method
Acetylcholinesterase [7] = molecular target: T2, Acetylcholinesterase; test: Inhibition of AChE (unknown origin) using acetyl thiocholine iodide as substrate at 0.125 mM after 30 mins by Ellman's method
Cholinesterase [8] = molecular target: T1, Cholinesterase; test: Inhibition of BChE (unknown origin) using butyryl thiocholine iodide as substrate at 0.125 mM after 30 mins by Ellman's method
Pseudomonas aeruginosa [9] = test: Antibacterial activity against Pseudomonas aeruginosa after 18 to 24 hrs by Micro-titer assay; type: functional
Escherichia coli [10] = test: Antibacterial activity against Escherichia coli 5604 at 1 mg/ml after 24 hrs by agar-well diffusion method; type: functional, organism-based
Staphylococcus aureus [11] = test: Antibacterial activity against Staphylococcus aureus at 1 mg/ml after 24 hrs by agar-well diffusion method; type: functional; details: read-out: IZ
Vibrio cholerae = test: Antibacterial activity against Vibrio cholerae at 1 mg/ml after 24 hrs by agar-well diffusion method; type: functional, organism-based
Staphylococcus aureus [12] = test: Antibacterial activity against Staphylococcus aureus after 18 to 24 hrs by Micro-titer assay; type: functional
Pseudomonas aeruginosa [13] = test: Antibacterial activity against Pseudomonas aeruginosa at 1 mg/ml after 24 hrs by agar-well diffusion method; type: functional; details: for zone of inhibition at 1000 µg/mL: read-out: IZ
Escherichia coli [14] = test: Antibacterial activity against Escherichia coli DH5[alpha] after 18 to 24 hrs by Micro-titer assay; type: functional
Escherichia coli [15] = test: Antibacterial activity against Escherichia coli DG2 at 1 mg/ml after 24 hrs by agar-well diffusion method; type: functional, organism-based
Escherichia coli [16] = test: Antibacterial activity against Escherichia coli DH5[alpha] at 1 mg/ml after 24 hrs by agar-well diffusion method; type: functional; details: read-out: IZ
Salmonella typhi = test: Antibacterial activity against Salmonella typhi at 1 mg/ml after 24 hrs by agar-well diffusion method; type: functional, organism-based; details: Salmonella enterica subsp. enterica serovar Typhi

T2 sequence (P22303 whole entry): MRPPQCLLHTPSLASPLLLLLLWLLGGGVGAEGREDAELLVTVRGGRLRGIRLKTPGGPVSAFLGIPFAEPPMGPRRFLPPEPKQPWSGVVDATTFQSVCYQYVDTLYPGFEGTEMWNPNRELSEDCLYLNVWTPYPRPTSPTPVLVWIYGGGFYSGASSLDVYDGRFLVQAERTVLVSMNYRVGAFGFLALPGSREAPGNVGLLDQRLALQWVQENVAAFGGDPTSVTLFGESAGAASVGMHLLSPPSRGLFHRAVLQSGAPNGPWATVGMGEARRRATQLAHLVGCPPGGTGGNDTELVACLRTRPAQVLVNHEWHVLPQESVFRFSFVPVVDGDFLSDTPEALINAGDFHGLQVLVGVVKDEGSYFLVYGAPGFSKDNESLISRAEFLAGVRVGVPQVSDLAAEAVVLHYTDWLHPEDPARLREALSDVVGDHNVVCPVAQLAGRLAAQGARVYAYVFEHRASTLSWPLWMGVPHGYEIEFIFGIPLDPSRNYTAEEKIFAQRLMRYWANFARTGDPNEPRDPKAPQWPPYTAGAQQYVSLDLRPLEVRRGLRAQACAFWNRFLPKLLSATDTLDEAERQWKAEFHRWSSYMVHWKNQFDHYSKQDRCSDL
T1 sequence (P06276 whole entry): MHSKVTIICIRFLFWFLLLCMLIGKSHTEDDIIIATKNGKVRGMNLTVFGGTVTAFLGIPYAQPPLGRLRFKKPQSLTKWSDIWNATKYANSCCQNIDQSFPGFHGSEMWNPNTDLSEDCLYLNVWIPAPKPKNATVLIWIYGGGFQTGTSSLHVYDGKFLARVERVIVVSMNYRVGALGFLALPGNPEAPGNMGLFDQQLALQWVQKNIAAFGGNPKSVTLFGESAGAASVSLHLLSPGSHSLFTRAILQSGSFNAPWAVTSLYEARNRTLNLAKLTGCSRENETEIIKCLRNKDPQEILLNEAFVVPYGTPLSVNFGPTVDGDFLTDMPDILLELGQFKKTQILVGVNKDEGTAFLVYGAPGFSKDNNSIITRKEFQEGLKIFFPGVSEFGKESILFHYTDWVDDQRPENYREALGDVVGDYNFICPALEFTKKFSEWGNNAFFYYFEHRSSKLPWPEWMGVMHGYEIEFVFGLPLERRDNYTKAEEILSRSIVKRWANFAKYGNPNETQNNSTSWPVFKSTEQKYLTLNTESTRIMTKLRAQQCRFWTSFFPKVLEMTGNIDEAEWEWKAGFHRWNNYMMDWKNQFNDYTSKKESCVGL

SMILES	inhibition (Cholinesterase [1]) [%]	inhibition (Acetylcholinesterase [2]) [%]	IC50 (Acetylcholinesterase [3]) [µmol]	IC50 (Cholinesterase [4]) [µmol]	also measured
O=C1NC(=S)NC(=O)C1=CNNC(=S)Nc1ccc(Br)cc1	84.5	80.4	79.21	68.41	–
O=C1NC(=S)NC(=O)C1=CNNC(=S)Nc1ccc(F)cc1	88.8	86.9	78.41	57.81	–
Cc1cccc(Cl)c1NC(=S)NNC=C1C(=O)NC(=O)NC1=O	–	–	–	8.81	inhibition (Cholinesterase [5]): 75.8%; inhibition (Acetylcholinesterase [6]): 49.4%
NC(=S)NNC=C1C(=O)NC(=O)NC1=O	87.5	65.8	119.11	56.51	–
N#Cc1ccc(NC(=S)NNC=C2C(=O)NC(=O)NC2=O)cc1	66.8	11.4	–	231.61	–
COc1ccc(NC(=S)NNC=C2C(=O)NC(=S)NC2=O)cc1	85.4	59.1	206.31	56.81	–
O=C(NNC=C1C(=O)NC(=S)NC1=O)Nc1ccccc1	–	–	74.21	3.31	inhibition (Acetylcholinesterase [7]): 66.8%; inhibition (Cholinesterase [8]): 85.1%
O=C1NC(=S)NC(=O)C1=CNNC(=S)Nc1ccc(C(F)(F)F)cc1	78.2	75.6	99.41	8.11	–
CNC(=O)Oc1ccc2c(c1)[C@]1(C)CCN(C)[C@@H]1N2C	92.5	92.5	–	–	–
CC(=O)NC=C1C(=O)NC(=O)NC1=O	88.3	77.7	90.91	116.61	MIC (Pseudomonas aeruginosa [9]): 200 µg/mL (≈ 1010 µM); inhibition zone (IZ) (Escherichia coli [10]): inactive; zone of inhibition at 1000 µg/mL (Staphylococcus aureus [11]): 18 mm; inhibition zone (IZ) (Vibrio cholerae): inactive; MIC (Staphylococcus aureus [12]): 100 µg/mL (≈ 507 µM); zone of inhibition at 1000 µg/mL (Pseudomonas aeruginosa [13]): 18 mm; MIC (Escherichia coli [14]): 100 µg/mL (≈ 507 µM); inhibition zone (IZ) (Escherichia coli [15]): inactive; zone of inhibition at 1000 µg/mL (Escherichia coli [16]): 15 mm; inhibition zone (IZ) (Salmonella typhi): inactive
O=C1NC(=O)C(=CNNC(=S)Nc2cccc(C(F)(F)F)c2)C(=O)N1	–	–	40.78	136.91	inhibition (Cholinesterase [5]): 75.9%; inhibition (Acetylcholinesterase [6]): 83.3%
O=C1NC(=S)NC(=O)C1=CNNC(=S)Nc1ccc(Cl)cc1	81.6	62	121.11	75.41	MIC (Pseudomonas aeruginosa [9]): 400 µg/mL (≈ 1120 µM); inhibition zone (IZ) (Escherichia coli [10]): inactive; zone of inhibition at 1000 µg/mL (Staphylococcus aureus [11]): 15 mm; inhibition zone (IZ) (Vibrio cholerae): inactive; MIC (Staphylococcus aureus [12]): 100 µg/mL (≈ 281 µM); inhibition zone (IZ) (Pseudomonas aeruginosa [13]): inactive; MIC (Escherichia coli [14]): 200 µg/mL (≈ 562 µM); inhibition zone (IZ) (Escherichia coli [15]): inactive; zone of inhibition at 1000 µg/mL (Escherichia coli [16]): 14 mm; inhibition zone (IZ) (Salmonella typhi): inactive
O=C1NC(=S)NC(=O)C1=CNNC(=S)Nc1ccccc1	83.2	73.2	115.11	57.11	–
O=C1NC(=O)C(=CNNC(=O)Nc2ccccc2)C(=O)N1	–	–	–	38.51	inhibition (Acetylcholinesterase [7]): 39.6%; inhibition (Cholinesterase [8]): 79.2%
O=C(N[C@H](CO)[C@H](O)c1ccc([N+](=O)[O-])cc1)C(Cl)Cl [CHLORAMPHENICOL]	–	–	–	–	MIC (Pseudomonas aeruginosa [9]): 1.56 µg/mL (≈ 4.83 µM); inhibition zone (IZ) (Escherichia coli [10]): inactive; zone of inhibition at 1000 µg/mL (Staphylococcus aureus [11]): 25 mm; inhibition zone (IZ) (Vibrio cholerae): inactive; MIC (Staphylococcus aureus [12]): < 0.78 µg/mL; zone of inhibition at 1000 µg/mL (Pseudomonas aeruginosa [13]): 25 mm; MIC (Escherichia coli [14]): 1.56 µg/mL (≈ 4.83 µM); inhibition zone (IZ) (Escherichia coli [15]): inactive; zone of inhibition at 1000 µg/mL (Escherichia coli [16]): 25 mm; inhibition zone (IZ) (Salmonella typhi): inactive
